# Results taken from PubChem BioAssay (NCI).
#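 In this assay, cells in 96-well plates receive the compound at five concentrations for 48 hours. Endpoints are linearly interpolated between the surrounding concentrations. Here, GI50 denotes the concentration required for 50% inhibition of growth. The concentration for full growth arrest is given as TGI.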
# How the values were obtained:
# Experiment in all cases: DTP human tumour cell line panel, 48 h
# OVCAR-4 ovarian = test system: OVCAR-4 ovarian
# KM12 colon = test system: KM12 colon
# SF-268 CNS = test system: SF-268 CNS
# SN12C renal = test system: SN12C renal
# SF-295 CNS = test system: SF-295 CNS
# MDA-MB-231 breast = test system: MDA-MB-231 breast
# HOP-92 NSCLC = test system: HOP-92 NSCLC
# CAKI-1 renal = test system: CAKI-1 renal
# NCI-H226 lung = test system: NCI-H226 lung
# LOX IMVI melanoma = test system: LOX IMVI melanoma
SMILES,TGI (OVCAR-4 ovarian) [µM],TGI (KM12 colon) [µM],TGI (SF-268 CNS) [µM],TGI (SN12C renal) [µM],TGI (SF-295 CNS) [µM],TGI (MDA-MB-231 breast) [µM],TGI (HOP-92 NSCLC) [µM],TGI (CAKI-1 renal) [µM],TGI (NCI-H226 lung) [µM],TGI (LOX IMVI melanoma) [µM],GI50 (OVCAR-4 ovarian) [µM],GI50 (KM12 colon) [µM],GI50 (SF-268 CNS) [µM],GI50 (SN12C renal) [µM],GI50 (SF-295 CNS) [µM],GI50 (MDA-MB-231 breast) [µM],GI50 (HOP-92 NSCLC) [µM],GI50 (CAKI-1 renal) [µM],GI50 (NCI-H226 lung) [µM],GI50 (LOX IMVI melanoma) [µM]
C[C@]12CC[C@H]3[C@@H](CCC4=C[C@@H](OC5OCC(OC6OC(CO)C(O)C(O)C6O)C(O)C5O)CC[C@@]43C=O)[C@@]1(O)CCC2C1=CC(=O)OC1 (stereo not given in full),1.07,13.9,1.64,2.01,3.53,> 73.7,5.13,1.62,5.79,2.96,,,,,,,,,,
O=C(c1ccccc1)c1ccccc1C(=O)c1ccccc1,> 100,> 100,> 100,> 100,> 100,> 100,99.4,70.6,> 100,> 100,36.7,36.2,63.4,> 100,31,65.5,16.4,19.4,52.3,46
COc1cc(CNC(=O)CCSc2nc3ccccc3c(=O)n2Cc2cc(OC)c(OC)c(OC)c2)cc(OC)c1OC,77.1,> 100,> 100,> 100,> 100,48.3,23.9,> 100,> 100,> 100,10.8,3.98,7.13,8.1,4.36,5.36,5.7,5.46,14.6,7.05
Cc1[nH]n(-c2ccccc2)c(=O)c1C(=O)c1ccccc1,> 25,> 25,> 25,> 25,> 25,> 25,> 25,> 25,> 25,> 25,> 25,11.7,> 25,> 25,> 25,> 25,> 10.6,> 25,> 25,> 25
C=C(C)[C@@H]1CC[C@]2(C)[C@H](CC=C3[C@@H]4[C@H](C)[C@@H](C)CC[C@]4(CO)CC[C@]32C)[C@@]1(C)CCCN,2.85,1.65,2.69,1.67,1.58,1.71,3.46,5.58,18.3,1.57,0.86,0.908,1.22,0.839,0.847,0.957,1.04,1.69,6.72,0.859
N#Cc1c(NCc2ccccc2)nc(NCc2ccccc2)c(C#N)c1-c1cccc(O)c1,> 100,> 100,46.5,6.69,13.2,7.34,18.9,19.4,7.86,11.5,23.6,4.03,19.5,2.31,2.92,2.23,2.51,2.77,2.91,2.96
COc1cc(/C=C/c2cc(/C=C/c3ccc(O)c(OC)c3)[nH]c(=O)n2)ccc1O,16.8,14.2,> 100,> 100,9.87,> 100,9.24,> 100,22.5,> 100,2.46,3.44,4.58,4.38,2.75,3.59,2.28,3.38,3.48,3.16
CC(C)(O)CCC(O)C(C)(O)C1CCC2(O)C3=CC(=O)C4(O)CC(O)C(O)CC4(C)C3CCC12C (stereo not given) (tested in a mixture with another compound),> 100,> 100,> 100,> 100,> 100,> 100,> 100,> 100,> 100,> 100,,,,,,,,,,
COc1ccc(S(=O)(=O)n2c3ccccc3n3ncc(-c4nnc(C)o4)c23)cc1,> 100,19.9,> 74.1,39.6,14.4,39.6,57.3,> 100,> 69.2,26.1,12.7,0.465,3.11,0.73,0.37,1.86,0.365,0.449,10.8,0.561
COc1cc(N=Nc2cccc(S(N)(=O)=O)c2)c2ccccc2c1N,27.8,26.4,31.9,26.1,26.6,26.5,> 58,20.8,39.7,18.1,,,,,,,,,,
O[C@H](CN1CC1)[C@@H](O)CN1CC1,> 100,28.1,30.8,> 100,1.71,71.6,67.9,2.85,26,28.4,15.4,11.7,2.6,1.86,0.382,24,7.62,0.423,3.17,2.81
O=C(Nc1cccc([N+](=O)[O-])c1)c1cc2ccccc2cc1O,> 100,6.44,> 100,7.78,5.33,3.64,4.41,4.88,7.43,7.69,2.61,2.41,2.98,1.17,1.96,1.47,0.422,1.16,1.87,1.87
